Source: patent US11396516B2, “Tricyclic compounds as Cyp1 inhibitors” (The General Hospital Corporation, priority 2017, dated 2022)
pEC50: −log10 of the molar value. “Also recorded” adds a separate entry of the source. Marks after values point to notes of the source that are not given here. One block for each molecule: values may come before it.

Assays:
[1] = system: rad9a; assay: Zebrafish proteomics; format: in vivo; settings: zebrafish embryos, 40 hours post-treatment; visnagin 20 μM
[2] = patients treated with DOX; cited from earlier work
[3] = system: slc2a1a; assay: Zebrafish proteomics; format: in vivo; settings: zebrafish embryos, 40 hours post-treatment; visnagin 20 μM
[4] = system: C-reactive protein 3 (CRP3); assay: Zebrafish proteomics; format: in vivo
Experimental: (§1) Expression levels of 6085 proteins were measured in zebrafish treated with doxorubicin with or without visnagin. […] This is in contrast to other proteins that were modulated to a similar extent in fish treated with doxorubicin but were not reversed by co-treatment with visnagin. For instance, levels of myosin heavy chain B (MYHB) were decreased in fish treated with DOX alone and in fish treated with DOX+visnagin. Downregulation of MYHB has been previously described with DOX treatment (Ito H, PNAS 1990). Likewise, the inflammatory marker C-reactive protein 3 (CRP3) was increased in both DOX and DOX+visnagin-treated fish.

[5] = system: myosin heavy chain B (MYHB); assay: Zebrafish proteomics; format: in vivo
Experimental: as §1

[6] = system: thbs1b; assay: Zebrafish proteomics; format: in vivo; settings: zebrafish embryos, 40 hours post-treatment; visnagin 20 μM
[7] = system: DOX-induced cardiac apoptosis in C57/B16 mice; assay: Mouse annexin model of acute DOX-induced cardiotoxicity (Anx-750 imaging); format: in vivo
Experimental: DOX fluorescence imaging was carried out on IVIS spectrum with the filter setting 500 nm excitation/600 nm emission, 30 second exposure, with 135 μm in-plane resolution. A series of DOX phantoms, ranging from 0 to 0.03 mM was prepared in saline, and imaged on the IVIS spectrum with identical settings. Anx-750 fluorescence was detected with the filter setting 745 nm excitation/800 nm emission, 30 second exposure, and 135 μm resolution.
Annexin and DOX fluorescence signal was quantified and analyzed in ImageJ (National Institute of Health). For each heart, fluorescence intensity was averaged across 4-6 slices. Annexin uptake was normalized to the saline injected control animals. DOX fluorescence in the heart was quantified by calculating the signal-to-noise ratio (SNR=mean fluorescence intensityheart/standard deviationair). A threshold of two standard deviations above the saline injected control animals was applied to all DOX injected animals, with or without therapeutics. Only animals that met the threshold (thus DOX positive hearts) were included in the analysis. All statistical analysis was performed in Prism (Graphpad).
Doxorubicin was dissolved in 0.9% normal saline and administered at a dose of 15 mg/kg to adult C57/B16 mice via i.p. injection. For the treatment arm, compound of example 2 was dissolved in 10% DMSO and 90% olive oil (carrier) or carrier alone was administered via intraperitoneal injection on the contralateral side.
Twenty-two hours after DOX and treatment injections, Anx-750 (Annexin Vivo 750, Perkin Elmer) was injected intravenously according to manufacturer's instructions. After 2 hours of probe circulation, hearts were excised, sectioned into 1-mm slices along the short axis, and imaged on a commercial imaging system (IVIS spectrum, Perkin Elmer) to assess apoptosis as previously described (Chen et al., 2011).
DOX uptake in the heart was assessed by reflectance fluorescence imaging, and the resultant apoptosis was simultaneously imaged with Anx-750, a near-infrared fluorescent Annexin V probe (Annexin-Vivo 750 is an Annexin V conjugate with a near-infrared fluorochrome, see Chen et al., 2011). […] Referring to FIGS. 1A-1D, * p<0.05, ** p<0.01, and *** p<0.001, ANOVA. Carrier=10% DMSO+90% olive oil.

[8] = system: CYP1 enzymes; assay: Zebrafish CYP1 enzyme levels after DOX treatment; settings: for levels of CYP1 enzymes after doxorubicin treatment: doxorubicin alone
[9] = system: LOC100332237; assay: Zebrafish proteomics; format: in vivo; settings: zebrafish embryos, 40 hours post-treatment; visnagin 20 μM
[10] = system: CYP1A; assay: Zebrafish proteomics; format: in vivo; settings: zebrafish embryos, 40 hours post-treatment; visnagin 20 μM
Experimental: (§2) The proteomics analysis was carried out as described in the material and methods section. All protein abundance values are normalized to DMSO-treated control zebrafish. * p<0.05 compared to the DMSO control using the Benjamini-Hochberg method of correcting for multiple hypotheses.

[11] = system: cyp1c1; assay: Zebrafish proteomics; format: in vivo; settings: zebrafish embryos, 40 hours post-treatment; visnagin 20 μM
Experimental: as §2

[12] = system: cyp1b1; assay: Zebrafish proteomics; format: in vivo; settings: zebrafish embryos, 40 hours post-treatment; visnagin 20 μM
Experimental: as §2

[13] = system: dhrs13l1; assay: Zebrafish proteomics; format: in vivo; settings: zebrafish embryos, 40 hours post-treatment; visnagin 20 μM
[14] = system: sqstm1; assay: Zebrafish proteomics; format: in vivo; settings: zebrafish embryos, 40 hours post-treatment; visnagin 20 μM
[15] = system: gstp2; assay: Zebrafish proteomics; format: in vivo; settings: zebrafish embryos, 40 hours post-treatment; visnagin 20 μM
[16] = system: zebrafish embryos; assay: Zebrafish toxicity in the absence of doxorubicin (TD50); settings: absence of doxorubicin treatment
Experimental: Dose-response curves were constructed using Prism (GraphPad). Raw data representing percent rescue at each dose was log-transformed, and EC50 values were calculated using nonlinear regression analysis. The median toxic dose (TD50) was defined for each compound by assessing for pericardial edema, non-specific deformities, and death in the absence of doxorubicin treatment (data not shown). Concentrations at and above the TD50 (toxic dose) were excluded from dose-response curves.

[17] = system: HL-1 cardiomyocytes; assay: Cultured HL-1 cardiomyocyte model (DOX-induced apoptosis, viability); format: cell-based, mouse; settings: doxorubicin 5 μM
Experimental: The cardiomyocyte cell line HL-1 derived from mouse atrial tumor was a gift from W. Claycomb. Cells were cultured as previously published (Claycomb et al., 1998) and treated with doxorubicin 5 μM with or without the tested compounds at a concentration up to 50 μM. Viability was assessed after 18 hours of using a CellTiter-Glo Luminescent assay from Promega. Each dose-response experiment was repeated three times.
Compounds were tested in HL-1 cultured cardiomyocytes to assess for efficacy in preventing DOX-induced apoptosis. Cell viability was assessed as described in the materials and methods section.

[18] = system: CYP1A; assay: Zebrafish CYP1A Western blot; format: in vivo; settings: co-treatment with DOX, 10 μM
Experimental: Assessing RNA and protein levels was performed using quantitative PCR (FIG. 2A) and Western blot with a zebrafish-specific antibody against CYP1A (FIG. 2B). […] This effect was seen as early as 18 hours post-treatment, prior to the development of the cardiomyopathy phenotype at 42 hours post-treatment.

[19] = system: zebrafish embryos treated with DOX (cardiomyopathy phenotype); assay: Zebrafish doxorubicin cardiomyopathy model (rescue from phenotype); format: in vivo; settings: Danio rerio; rescue from DOX (100 μM) cardiomyopathy phenotype, 40 hours post-treatment; read-out: EC50 is zebrafish
Experimental: Zebrafish embryos at 30 hours post-fertilization were treated with DOX at 100 μM in 96-well plates as previously described (Liu et al., 2014). Tested compounds were dissolved in DMSO and added at concentrations ranging from 3 nM to 10 μM (n=6 fish per dose; <1% DMSO v/v). The cardiomyopathy phenotype (decreased cardiac contraction, pericardial edema, and decreased tail blood flow) was assessed under light microscopy (5× magnification) at 40 hours post-treatment (hpt). Percent rescue from the cardiomyopathy phenotype was calculated for each concentration tested. Zebrafish were considered to be rescued from DOX-induced cardiomyopathy if all three features of the phenotype were absent. For the tested compounds, each dose-response experiment was repeated three times.
Dose-response curves were constructed using Prism (GraphPad).
Zebrafish were treated with DOX and assessed for the development of the cardiomyopathy phenotype (decreased cardiac contraction, pericardial edema, and decreased tail blood flow). Zebrafish were considered to be rescued if all three features of the cardiomyopathy phenotype were absent upon co-treatment with a tested compound. Referring to FIGS. 3-9, data are depicted as mean+/−standard error (n=6 fish per dose; each experiment performed in triplicate).

[20] = target: CYP2C19 (Homo sapiens (Human), UniProt P33261); assay: CYP inhibition assay, human liver microsomes; format: biochemical; settings: omeprazole 0.5 μM
Experimental: (§3) CYP inhibition experiments were performed by Cerep Panlabs (Eurofins) using human liver microsomes and the following substrates: phenacetin 10 μM (CYP1A), buproprion 100 μM (CYP2B6), paclitaxel 10 μM (CYP2C8), diclofenac 10 μM (CYP 2C9), omeprazole 0.5 μM (CYP2C19), dextromethorphan 5 μM (CYP2D6), and testosterone 50 μM (CYP3A). Metabolites of each substrate were measured using LC-MS/MS. Mean percent inhibition was calculated using the following reference inhibitors: furafylline (CYP1A), clopidogrel (CYP2B6), montelukast (CYP2C8), sulfaphenazole (CYP2C9), oxybutynin (CYP2C19), quinidine (CYP2D6), and ketoconazole (CYP3A). […] All concentrations were tested in duplicate to obtain the final results.
(§4) The ability of the tested compounds to inhibit a panel of CYP enzymes in vitro was assessed using a series of human liver microsome assays.

[21] = target: CYP2C8 (Homo sapiens (Human), UniProt P10632); assay: CYP inhibition assay, human liver microsomes; format: biochemical; settings: paclitaxel 10 μM, reference montelukast
Experimental: as §3, §4

[22] = target: CYP1A (Homo sapiens (Human), UniProt P05177); assay: CYP inhibition assay, human liver microsomes; format: biochemical; settings: human liver microsomes, phenacetin 10 μM; read-out: IC50 (M) CYP1A
Experimental: as §3, §4

[23] = target: CYP2B6 (Homo sapiens (Human), UniProt P20813); assay: CYP inhibition assay, human liver microsomes; format: biochemical; settings: buproprion 100 μM
Experimental: as §3, §4

[24] = target: CYP2C9 (Homo sapiens (Human), UniProt P11712); assay: CYP inhibition assay, human liver microsomes; format: biochemical; settings: diclofenac 10 μM, reference sulfaphenazole
Experimental: as §3, §4

[25] = target: CYP2D6 (Homo sapiens (Human), UniProt P10635); assay: CYP inhibition assay, human liver microsomes; format: biochemical; settings: dextromethorphan 5 μM
Experimental: as §3, §4

[26] = target: CYP3A (Homo sapiens, UniProt P08684); assay: CYP inhibition assay, human liver microsomes; format: biochemical
Experimental: as §3, §4

[27] = system: zebrafish embryos treated with DOX (cardiomyopathy phenotype); assay: Zebrafish doxorubicin cardiomyopathy model (rescue from phenotype); format: in vivo; settings: visnagin 20 μM plus AHR agonist

CYP2B6, sequence (P20813 whole entry): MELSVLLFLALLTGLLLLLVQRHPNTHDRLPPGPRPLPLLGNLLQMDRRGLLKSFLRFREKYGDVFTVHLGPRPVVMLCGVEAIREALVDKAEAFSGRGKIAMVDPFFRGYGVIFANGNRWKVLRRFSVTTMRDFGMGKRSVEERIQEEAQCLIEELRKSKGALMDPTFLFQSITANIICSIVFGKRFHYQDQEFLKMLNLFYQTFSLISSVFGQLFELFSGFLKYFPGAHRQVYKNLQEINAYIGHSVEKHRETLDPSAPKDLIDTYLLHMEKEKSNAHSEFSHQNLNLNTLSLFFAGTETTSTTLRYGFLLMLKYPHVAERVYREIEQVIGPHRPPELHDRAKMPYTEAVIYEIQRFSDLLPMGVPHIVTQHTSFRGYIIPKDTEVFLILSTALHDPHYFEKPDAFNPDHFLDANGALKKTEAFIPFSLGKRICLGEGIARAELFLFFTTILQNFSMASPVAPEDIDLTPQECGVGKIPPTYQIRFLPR
CYP2D6, sequence (P10635 whole entry): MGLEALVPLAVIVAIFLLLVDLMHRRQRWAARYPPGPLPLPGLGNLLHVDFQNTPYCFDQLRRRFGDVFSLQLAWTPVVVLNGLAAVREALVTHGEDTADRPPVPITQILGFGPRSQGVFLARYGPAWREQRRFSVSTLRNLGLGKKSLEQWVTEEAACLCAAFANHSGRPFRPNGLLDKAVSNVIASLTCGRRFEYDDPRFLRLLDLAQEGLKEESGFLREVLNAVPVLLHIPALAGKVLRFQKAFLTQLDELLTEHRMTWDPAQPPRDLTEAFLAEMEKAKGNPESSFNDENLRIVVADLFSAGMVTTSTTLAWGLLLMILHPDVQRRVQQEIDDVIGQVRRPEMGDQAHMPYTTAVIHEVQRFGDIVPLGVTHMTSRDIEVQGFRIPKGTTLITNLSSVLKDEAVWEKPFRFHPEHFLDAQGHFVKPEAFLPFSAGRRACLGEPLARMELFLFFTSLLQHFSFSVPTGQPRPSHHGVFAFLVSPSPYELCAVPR
CYP3A, sequence (P08684 2-503 limits assumed): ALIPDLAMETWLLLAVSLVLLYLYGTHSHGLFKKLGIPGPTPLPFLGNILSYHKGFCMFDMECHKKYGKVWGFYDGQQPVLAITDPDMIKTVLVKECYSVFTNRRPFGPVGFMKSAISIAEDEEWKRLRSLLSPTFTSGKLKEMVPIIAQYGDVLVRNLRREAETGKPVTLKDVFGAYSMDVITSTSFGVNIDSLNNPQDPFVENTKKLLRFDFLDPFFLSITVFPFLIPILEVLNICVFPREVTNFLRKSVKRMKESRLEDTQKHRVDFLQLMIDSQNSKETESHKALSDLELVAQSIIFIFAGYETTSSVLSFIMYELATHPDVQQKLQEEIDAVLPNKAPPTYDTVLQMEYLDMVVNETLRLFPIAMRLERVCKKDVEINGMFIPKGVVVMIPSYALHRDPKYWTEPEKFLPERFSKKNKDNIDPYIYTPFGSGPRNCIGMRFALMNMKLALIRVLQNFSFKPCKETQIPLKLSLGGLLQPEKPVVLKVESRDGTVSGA
CYP2C19, sequence (P33261 whole entry): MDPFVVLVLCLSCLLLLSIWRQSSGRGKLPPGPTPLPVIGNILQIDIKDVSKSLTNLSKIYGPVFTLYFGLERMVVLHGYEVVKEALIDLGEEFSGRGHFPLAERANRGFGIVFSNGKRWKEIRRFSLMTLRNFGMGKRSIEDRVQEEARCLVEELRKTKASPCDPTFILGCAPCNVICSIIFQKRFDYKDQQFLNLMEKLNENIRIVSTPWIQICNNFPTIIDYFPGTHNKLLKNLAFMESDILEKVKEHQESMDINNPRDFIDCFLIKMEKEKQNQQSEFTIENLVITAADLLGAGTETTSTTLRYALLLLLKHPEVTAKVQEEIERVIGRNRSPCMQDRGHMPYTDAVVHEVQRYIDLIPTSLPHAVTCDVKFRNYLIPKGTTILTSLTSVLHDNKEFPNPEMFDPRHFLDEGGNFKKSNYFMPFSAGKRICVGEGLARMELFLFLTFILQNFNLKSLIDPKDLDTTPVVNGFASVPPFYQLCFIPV
CYP2C8, sequence (P10632 whole entry): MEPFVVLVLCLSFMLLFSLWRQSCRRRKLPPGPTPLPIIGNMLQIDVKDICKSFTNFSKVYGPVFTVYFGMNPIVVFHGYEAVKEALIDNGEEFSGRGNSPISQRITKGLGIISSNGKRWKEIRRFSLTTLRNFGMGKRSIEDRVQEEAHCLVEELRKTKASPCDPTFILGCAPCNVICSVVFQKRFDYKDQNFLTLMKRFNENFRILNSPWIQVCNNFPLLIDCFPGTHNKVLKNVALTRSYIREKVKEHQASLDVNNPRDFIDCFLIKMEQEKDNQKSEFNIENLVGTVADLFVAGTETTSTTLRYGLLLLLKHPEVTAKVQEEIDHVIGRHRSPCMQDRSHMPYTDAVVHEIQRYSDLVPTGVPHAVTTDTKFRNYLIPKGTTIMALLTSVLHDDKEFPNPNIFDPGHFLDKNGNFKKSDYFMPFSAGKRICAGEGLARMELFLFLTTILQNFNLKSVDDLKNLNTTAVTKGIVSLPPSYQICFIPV
CYP2C9, sequence (P11712 whole entry): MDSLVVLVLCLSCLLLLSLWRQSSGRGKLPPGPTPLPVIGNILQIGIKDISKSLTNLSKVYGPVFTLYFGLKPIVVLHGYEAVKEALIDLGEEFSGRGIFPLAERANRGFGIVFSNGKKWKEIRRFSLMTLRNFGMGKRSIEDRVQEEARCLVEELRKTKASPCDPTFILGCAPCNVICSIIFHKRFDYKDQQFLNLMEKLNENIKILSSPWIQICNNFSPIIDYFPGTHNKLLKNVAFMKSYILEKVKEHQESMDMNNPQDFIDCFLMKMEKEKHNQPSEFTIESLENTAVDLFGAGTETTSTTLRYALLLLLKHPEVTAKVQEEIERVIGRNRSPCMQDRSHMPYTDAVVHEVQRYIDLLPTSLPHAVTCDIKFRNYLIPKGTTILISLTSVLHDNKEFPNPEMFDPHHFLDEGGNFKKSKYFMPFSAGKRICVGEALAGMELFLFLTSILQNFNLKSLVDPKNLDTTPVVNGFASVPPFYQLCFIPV
CYP1A (Homo sapiens (Human), UniProt P05177), sequence (P05177 whole entry): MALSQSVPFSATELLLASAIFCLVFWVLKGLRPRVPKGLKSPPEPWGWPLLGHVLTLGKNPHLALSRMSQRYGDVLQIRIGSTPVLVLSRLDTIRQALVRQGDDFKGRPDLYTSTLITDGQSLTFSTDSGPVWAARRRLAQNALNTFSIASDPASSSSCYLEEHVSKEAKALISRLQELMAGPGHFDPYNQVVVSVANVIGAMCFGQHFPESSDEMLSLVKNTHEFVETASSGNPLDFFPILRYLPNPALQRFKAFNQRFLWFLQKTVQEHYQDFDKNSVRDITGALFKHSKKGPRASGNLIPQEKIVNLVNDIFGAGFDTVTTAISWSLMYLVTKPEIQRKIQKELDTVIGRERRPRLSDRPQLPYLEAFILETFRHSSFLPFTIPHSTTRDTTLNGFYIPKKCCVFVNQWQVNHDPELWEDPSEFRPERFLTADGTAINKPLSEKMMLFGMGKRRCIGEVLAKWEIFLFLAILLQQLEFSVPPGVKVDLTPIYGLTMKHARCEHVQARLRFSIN

- levels of CYP1 enzymes after doxorubicin treatment [8]: robust induction
- Protein Abundance (Normalized to DMSO) cyp1a [10]: 9.52*
- Protein Abundance (Normalized to DMSO) cyp1c1 [11]: 7.91*
- Protein Abundance (Normalized to DMSO) cyp1b1 [12]: 6.26*
SMILES: COc1cccc2c1C(=O)c1c(O)c3c(c(O)c1C2=O)C[C@@](O)(C(=O)CO)C[C@@H]3O[C@H]1C[C@H](N)[C@H](O)[C@H](C)O1 [DOX, doxorubicin]
- Protein Abundance (Normalized to DMSO) rad9a [1]: 2.92*
- patients with dose-dependent cardiotoxicity [2]: up to 9%
- Protein Abundance (Normalized to DMSO) slc2a1a [3]: 1.19
- levels of C-reactive protein 3 (CRP3) [4]: increased
- levels of myosin heavy chain B (MYHB) [5]: decreased
- Protein Abundance (Normalized to DMSO) thbs1b [6]: 2.29*
- cardiac annexin uptake, DOX only group ([7]; DOX 15 mg/kg + carrier vs saline control): increased significantly
- levels of CYP1 enzymes after doxorubicin treatment ([8]; listed as doxorubicin): significant upregulation; also recorded: significantly increased
- Protein Abundance (Normalized to DMSO) LOC100332237 [9]: 3.03*
- Protein Abundance (Normalized to DMSO) dhrs13l1 [13]: 3.02*
- Protein Abundance (Normalized to DMSO) sqstm1 [14]: 2.78*
- Protein Abundance (Normalized to DMSO) gstp2 [15]: 2.32*

SMILES: CC(C)(C)OC(=O)NCCCOc1c2ccoc2cc2oc(=O)ccc12 [Example 2, tert-butyl (3-((7-oxo-7H-furo[3,2-g]chromen-4-yl)oxy)propyl)carbamate]
- toxic dose TD50 in the zebrafish model [16]: > 10 µM
- pEC50 ([17]; Mus musculus, HL-1, viability after 18 hours, CellTiter-Glo, read-out: EC50 in HL-1 Cells): < 4.30
- efficacy in HL-1 cell culture model ([17]; doses up to 50 μM): ineffective
- induction of CYP1A by DOX, Western blot [18]: mitigated induction of CYP1A
- cardiac apoptosis / Annexin (Anx-750) uptake ([7]; DOX 15 mg/kg i.p., doses of 0.1 mg/kg, 1 mg/kg and 2 mg/kg i.p., 24 hours): significant reduction in apoptosis; also recorded: reduced significantly; also recorded: significant cardioprotective effect
- Annexin-Vivo fluorescence in the mouse heart / cardioprotection ([7]; DOX 15 mg/kg, 0.1 mg/kg i.p.): significantly reduced; also recorded: cardioprotective
- ex vivo Anx fluorescence in heart ([7]; DOX 15 mg/kg, dose of 2 mg/kg): marked reduction
- potency relative to visnagin in reducing DOX-induced cardiomyocyte apoptosis in mice ([7]; compared to visnagin): 250 fold
- effect on DOX-induced increase of CYP1 enzyme levels ([8]; co-treatment with doxorubicin): completely abolished
- pEC50 [19]: 8.15
- IC50 [20]: 12 µM
- Mean % Inhibition CYP2C19 ([20]; reference oxybutynin): 57.0%
- Mean % Inhibition CYP2C8 [21]: 7.1%
- IC50 [22]: 1.6e-06 M
- IC50 [23]: 88 µM
- Mean % Inhibition CYP2B6 ([23]; reference clopidogrel): 67.2%
- Mean % Inhibition CYP2C9 [24]: 2.4%
- IC50 [25]: 2 µM
- Mean % Inhibition CYP2D6 ([25]; reference quinidine): 84.4%
- IC50 ([26]; probe testosterone 50 μM): 9.3 µM
- Mean % Inhibition CYP3A ([26]; testosterone 50 μM, reference ketoconazole): 62.7%

SMILES: COC(=O)c1csc(C(=O)c2c[nH]c3ccccc23)n1 [methyl 2-(1H-indole-3-carbonyl)-1,3-thiazole-4-carboxylate]
- effect on visnagin-mediated rescue from doxorubicin-induced cardiomyopathy [27]: abrogated
